Source: patent US20050239764A1, “Zinc pyrrolidonecarboxylate dihydrate and method of producing the same” (Ajinomoto Co., Inc., priority 2004, published 2005)

Conditions: dihydrate; for transmittance (T %) of 10 g/dl aqueous solution: 4 g dissolved in water to 40 ml, kept at 25° C. for one day, stirred 1 min, 550 nm, optical path 10 mm, 25° C.; for liquid of 10 g/dl aqueous solution: evaluation grade of dissolution state from transmittance at 550 nm, 10 mm path
Method: Apparatus: Spectrophotometer V-570 (JAS. CO)
Spectrophotometer (UV/VIS/NIR)
measure wavelength: 550 nm
band width (near infrared): 8.0 nm
repeating interval: 3 sec.
measure cell: quartz glass cell T-1-UV-10 manufactured by TOSOH Quartz Co.
(Optical path width: 10 mm, outside width; 12.5 mm, height; 45 mm)
measure temperature: 25° C.(R.T.)
1) Stabilization of value was performed, thereby starting setting until 2 hours before measuring.
2) Determination of measuring program: Fixed Wavelength program was selected, and then initialization of wavelength was performed.
3) Injecting ion exchange water (about 3 ml) into each of blank cell and sample cell, setting on photometer, correcting zero point, and then determining a blank (Completion of measuring preparation).
RIKEN KOGYO INC., Magmix Stirrer) at 3 of speed range, and then the solution (3 ml) was injected into measuring cell immediately.
5) The cell was equipped photometer immediately after confirming absence of bubble in the cell.
6) After setting, the cell was stood for 1 min, and then subjected to measurement.
7) The transmittance (% T) is the value measured with photometer.
Under the above conditions, the transmittance was obtained accurately although measuring sample comprised insoluble material, because insoluble material was dispersed uniformly in the whole cell.

Substance | transmittance (T %) of 10 g/dl aqueous solution [%] | liquid of 10 g/dl aqueous solution
zinc pyrrolidonecarboxylate dihydrate [Com. Ex. 1, reference compound] | 17.5 | –
zinc pyrrolidonecarboxylate dihydrate [Ex. 7] | 95.7 | –
zinc pyrrolidonecarboxylate dihydrate [Com. Ex. 3, reference compound] | 60.3 | –
zinc pyrrolidonecarboxylate dihydrate [Com. Ex. 2, reference compound] | 30.6 | –
zinc pyrrolidonecarboxylate dihydrate [Com. Ex. 4, reference compound] | 19.9 | –

Further lines, results first:

transmittance (T %) of 10 g/dl aqueous solution [%] | liquid of 10 g/dl aqueous solution | Substance
97.9 | ⊚ | zinc pyrrolidonecarboxylate dihydrate [Ex. 5]
96.9 | ◯ | zinc pyrrolidonecarboxylate dihydrate [Ex. 3]
97.6 | ⊚ | zinc pyrrolidonecarboxylate dihydrate [Ex. 4]
86.1 | Δ (Δ: 93-85%) | zinc pyrrolidonecarboxylate dihydrate [Ex. 6]
96.6 | ◯ | zinc pyrrolidonecarboxylate dihydrate [Ex. 1]
97.6 | ⊚ | zinc pyrrolidonecarboxylate dihydrate [Ex. 2]
